Results: the supplement of paper PMC8633005

Key:
Assay in all cases: drug sensitivity score (DSS) (DSS (unitless, 0-50 scale)); higher = more sensitive (stronger viability inhibition); extreme values may be limits of the assay
Conditions in all cases: 72 h; culture: 2D
SK-MEL-2 = test system: SK-MEL-2
Method in brief: (§1)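 Drug sensitivity scores, modified area-under-curve measures, were derived from dose-response curves fitted in the in-house Breeze software. The curves came from melanoma cell lines and patient-derived melanoma cultures (1000–1500 cells per well) grown in 2D in 384-well plates holding a 527-compound oncology library. Each compound was dissolved in DMSO or water and tested at five concentrations across a 10,000-fold range. Viability was read by CellTiter-Glo luminescence after 72 h at 37 °C.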

FM-MEL-2 = test system: FM-MEL-2
Method in brief: as §1

FM-MEL-6 = test system: FM-MEL-6
Method in brief: as §1

WM165 = test system: WM165
Method in brief: as §1

SK-MEL-28 = test system: SK-MEL-28
Method in brief: as §1

FM-MEL-3 = test system: FM-MEL-3
Method in brief: as §1

WM852 = test system: WM852
Method in brief: as §1

Bowes = test system: Bowes
Method in brief: as §1

`CCOc1ccn(-c2ccc(F)cc2)c(=O)c1C(=O)Nc1ccc(Oc2ccnc(N)c2Cl)c(F)c1` was tested, and the drug sensitivity score (SK-MEL-2) was 0, the drug sensitivity score (FM-MEL-2) was 0 and the drug sensitivity score (FM-MEL-6) was 0. For the same compound, the drug sensitivity score (WM165) was 0, the drug sensitivity score (SK-MEL-28) was 0 and the drug sensitivity score (FM-MEL-3) was 0. It also gave a drug sensitivity score (WM852) of 0 and a drug sensitivity score (Bowes) of 0.

In the case of `CCc1cncnc1N1CCN(Cc2nc3ccc(C(F)(F)F)cc3[nH]2)CC1`, the drug sensitivity score (SK-MEL-2) is reported as 0, the drug sensitivity score (FM-MEL-2) is reported as 0.5 and the drug sensitivity score (FM-MEL-6) is reported as 0.7. It also gave a drug sensitivity score (WM165) of 0, a drug sensitivity score (SK-MEL-28) of 0 and a drug sensitivity score (FM-MEL-3) of 1.7. The drug sensitivity score (WM852) was 3.3 and the drug sensitivity score (Bowes) was 2.1.

`CCn1c(-c2nonc2N)nc2c(C#CC(C)(C)O)ncc(OC[C@H]3CCCNC3)c21` showed a drug sensitivity score (SK-MEL-2) of 0, a drug sensitivity score (FM-MEL-2) of 1 and a drug sensitivity score (FM-MEL-6) of 0. It also gave a drug sensitivity score (WM165) of 3.4, a drug sensitivity score (SK-MEL-28) of 0 and a drug sensitivity score (FM-MEL-3) of 1.8. For the same compound, the drug sensitivity score (WM852) was 0 and the drug sensitivity score (Bowes) was 1.

`CCn1c(-c2nonc2N)nc2cnc(Oc3cccc(NC(=O)c4ccc(OCCN5CCOCC5)cc4)c3)cc21` was tested, and the drug sensitivity score (SK-MEL-2) was 0, the drug sensitivity score (FM-MEL-2) was 2.6 and the drug sensitivity score (FM-MEL-6) was 0.3. The drug sensitivity score (WM165) was 5.2, the drug sensitivity score (SK-MEL-28) was 1.1 and the drug sensitivity score (FM-MEL-3) was 4.3. The drug sensitivity score (WM852) was 4.6 and the drug sensitivity score (Bowes) was 0.

With `CCn1c(C(=O)N(C2CC2)C2CC2)cc2c3c(ncn3C)c(Nc3cc(C)n(C)n3)nc21` the drug sensitivity score (SK-MEL-2) was 0, the drug sensitivity score (FM-MEL-2) was 2.3 and the drug sensitivity score (FM-MEL-6) was 0.8. The drug sensitivity score (WM165) was 0, the drug sensitivity score (SK-MEL-28) was 0.4 and the drug sensitivity score (FM-MEL-3) was 0. For the same compound, the drug sensitivity score (WM852) was 0 and the drug sensitivity score (Bowes) was 0.

With `CCn1cc(-c2ccnc3[nH]c(-c4cccc(CN(C)C)c4)cc23)c(-c2ccc(NC(=O)N(C)C)cc2)n1` the drug sensitivity score (SK-MEL-2) was 0, the drug sensitivity score (FM-MEL-2) was 0 and the drug sensitivity score (FM-MEL-6) was 0. It also gave a drug sensitivity score (WM165) of 6, a drug sensitivity score (SK-MEL-28) of 0.1 and a drug sensitivity score (FM-MEL-3) of 0. The drug sensitivity score (WM852) was 0 and the drug sensitivity score (Bowes) was 2.7.

`CN(c1ncccc1CNc1nc(Nc2ccc3c(c2)CC(=O)N3)ncc1C(F)(F)F)S(C)(=O)=O` showed a drug sensitivity score (SK-MEL-2) of 0, a drug sensitivity score (FM-MEL-2) of 3 and a drug sensitivity score (FM-MEL-6) of 5.2. For the same compound, the drug sensitivity score (WM165) was 9.1, the drug sensitivity score (SK-MEL-28) was 4.7 and the drug sensitivity score (FM-MEL-3) was 7.1. It also gave a drug sensitivity score (WM852) of 5.3 and a drug sensitivity score (Bowes) of 6.4.

With `CNC(=O)c1ccc(C)c(-n2c(C)cc(OCc3ccc(F)cc3F)c(Br)c2=O)c1` the drug sensitivity score (SK-MEL-2) was 0, the drug sensitivity score (FM-MEL-2) was 0 and the drug sensitivity score (FM-MEL-6) was 0. It also gave a drug sensitivity score (WM165) of 0, a drug sensitivity score (SK-MEL-28) of 0 and a drug sensitivity score (FM-MEL-3) of 0. For the same compound, the drug sensitivity score (WM852) was 0 and the drug sensitivity score (Bowes) was 0.

Work on `CNc1nc(-c2ccc3c(N)n[nH]c3c2)cc(N2C[C@@H](C(=O)NC3CCCCC3)CC[C@H]2C)n1` yielded a drug sensitivity score (SK-MEL-2) of 0, a drug sensitivity score (FM-MEL-2) of 1.8 and a drug sensitivity score (FM-MEL-6) of 0. The drug sensitivity score (WM165) was 0.4, the drug sensitivity score (SK-MEL-28) was 1.5 and the drug sensitivity score (FM-MEL-3) was 0. It also gave a drug sensitivity score (WM852) of 0 and a drug sensitivity score (Bowes) of 0.

`COc1cc2ncnc(Oc3cccc(NC(=O)Nc4cc(C(C)(C)C(F)(F)F)on4)c3)c2cc1OC` showed a drug sensitivity score (SK-MEL-2) of 0, a drug sensitivity score (FM-MEL-2) of 7.6 and a drug sensitivity score (FM-MEL-6) of 2. For the same compound, the drug sensitivity score (WM165) was 0, the drug sensitivity score (SK-MEL-28) was 0 and the drug sensitivity score (FM-MEL-3) was 15. The drug sensitivity score (WM852) was 3.3 and the drug sensitivity score (Bowes) was 0.

For `C[C@@H](Oc1cc(-n2cnc3ccc(CN4CCN(C)CC4)cc32)sc1C(N)=O)c1ccccc1C(F)(F)F`, the drug sensitivity score (SK-MEL-2) was 10.1, the drug sensitivity score (FM-MEL-2) was 5 and the drug sensitivity score (FM-MEL-6) was 10. For the same compound, the drug sensitivity score (WM165) was 25.6, the drug sensitivity score (SK-MEL-28) was 8.1 and the drug sensitivity score (FM-MEL-3) was 1.7. It also gave a drug sensitivity score (WM852) of 22.8 and a drug sensitivity score (Bowes) of 27.9.

With `C[C@@H](Oc1ccc2[nH]nc(/C=C/c3cnn(CCO)c3)c2c1)c1c(Cl)cncc1Cl` the drug sensitivity score (SK-MEL-2) was 0.3, the drug sensitivity score (FM-MEL-2) was 0 and the drug sensitivity score (FM-MEL-6) was 2. It also gave a drug sensitivity score (WM165) of 4.3, a drug sensitivity score (SK-MEL-28) of 1.3 and a drug sensitivity score (FM-MEL-3) of 2.1. For the same compound, the drug sensitivity score (WM852) was 3.2 and the drug sensitivity score (Bowes) was 6.

In the case of `C[C@@H]1CN(CC(=O)Nc2ccc3c(c2)Cc2cccc(-c4cc(=O)cc(N5CCOCC5)o4)c2S3)C[C@H](C)O1`, the drug sensitivity score (SK-MEL-2) is reported as 0, the drug sensitivity score (FM-MEL-2) is reported as 1.5 and the drug sensitivity score (FM-MEL-6) is reported as 1. It also gave a drug sensitivity score (WM165) of 1.1, a drug sensitivity score (SK-MEL-28) of 3.4 and a drug sensitivity score (FM-MEL-3) of 1.2. For the same compound, the drug sensitivity score (WM852) was 2.6 and the drug sensitivity score (Bowes) was 2.5.

In the case of `Cc1c(Cn2c(C)nc3c(C(=O)O)cc(N4CCOCC4)cc32)cccc1C(F)(F)F`, the drug sensitivity score (SK-MEL-2) is reported as 0, the drug sensitivity score (FM-MEL-2) is reported as 0 and the drug sensitivity score (FM-MEL-6) is reported as 0. It also gave a drug sensitivity score (WM165) of 0, a drug sensitivity score (SK-MEL-28) of 0.3 and a drug sensitivity score (FM-MEL-3) of 0. The drug sensitivity score (WM852) was 0 and the drug sensitivity score (Bowes) was 0.

`Cc1nc(Nc2n[nH]c3c2CN(C(=O)N[C@H](CN(C)C)c2ccccc2)C3(C)C)c2sccc2n1` showed a drug sensitivity score (SK-MEL-2) of 12.3, a drug sensitivity score (FM-MEL-2) of 11.8 and a drug sensitivity score (FM-MEL-6) of 14.8. For the same compound, the drug sensitivity score (WM165) was 26.9, the drug sensitivity score (SK-MEL-28) was 18.4 and the drug sensitivity score (FM-MEL-3) was 17.5. The drug sensitivity score (WM852) was 9.9 and the drug sensitivity score (Bowes) was 18.6.

`NCC(=O)Nc1ccc(-n2nc(C(F)(F)F)cc2-c2ccc3c(ccc4ccccc43)c2)cc1` gave a drug sensitivity score (SK-MEL-2) of 0, a drug sensitivity score (FM-MEL-2) of 0.4 and a drug sensitivity score (FM-MEL-6) of 0.4. For the same compound, the drug sensitivity score (WM165) was 3.4, the drug sensitivity score (SK-MEL-28) was 2.5 and the drug sensitivity score (FM-MEL-3) was 0. For the same compound, the drug sensitivity score (WM852) was 0 and the drug sensitivity score (Bowes) was 0.

Compound `Nc1nccc(-c2c(-c3ccc(F)cc3)ncn2C2CCCCC2)n1` has a drug sensitivity score (SK-MEL-2) of 0, a drug sensitivity score (FM-MEL-2) of 0 and a drug sensitivity score (FM-MEL-6) of 0. For the same compound, the drug sensitivity score (WM165) was 0, the drug sensitivity score (SK-MEL-28) was 0 and the drug sensitivity score (FM-MEL-3) was 0. For the same compound, the drug sensitivity score (WM852) was 0 and the drug sensitivity score (Bowes) was 0.

`Nc1ncnc2c1c(COc1cccc(Cl)c1)nn2C1CCOCC1` gave a drug sensitivity score (SK-MEL-2) of 0, a drug sensitivity score (FM-MEL-2) of 0.2 and a drug sensitivity score (FM-MEL-6) of 0.7. It also gave a drug sensitivity score (WM165) of 0, a drug sensitivity score (SK-MEL-28) of 0 and a drug sensitivity score (FM-MEL-3) of 0. It also gave a drug sensitivity score (WM852) of 0.8 and a drug sensitivity score (Bowes) of 0.

Compound `O=C(NOC[C@H](O)CO)c1ccc(F)c(F)c1Nc1ccc(I)cc1F` has a drug sensitivity score (SK-MEL-2) of 11.1, a drug sensitivity score (FM-MEL-2) of 14.5 and a drug sensitivity score (FM-MEL-6) of 11.4. For the same compound, the drug sensitivity score (WM165) was 18.6, the drug sensitivity score (SK-MEL-28) was 18 and the drug sensitivity score (FM-MEL-3) was 26.8. The drug sensitivity score (WM852) was 3.8 and the drug sensitivity score (Bowes) was 0.5.

`O=C(O)c1ccc(-c2c[nH]c3ncc(-c4ccccc4)cc23)cc1C1CCCC1` showed a drug sensitivity score (SK-MEL-2) of 0, a drug sensitivity score (FM-MEL-2) of 0 and a drug sensitivity score (FM-MEL-6) of 0. It also gave a drug sensitivity score (WM165) of 1.2, a drug sensitivity score (SK-MEL-28) of 0.7 and a drug sensitivity score (FM-MEL-3) of 0. For the same compound, the drug sensitivity score (WM852) was 0 and the drug sensitivity score (Bowes) was 0.

Work on `O=c1[nH]c(C2CCCN2)nc2c1oc1ccc(Cl)cc12` (stereo not drawn) yielded a drug sensitivity score (SK-MEL-2) of 0, a drug sensitivity score (FM-MEL-2) of 0.5 and a drug sensitivity score (FM-MEL-6) of 0. It also gave a drug sensitivity score (WM165) of 0.7, a drug sensitivity score (SK-MEL-28) of 0 and a drug sensitivity score (FM-MEL-3) of 0. For the same compound, the drug sensitivity score (WM852) was 0 and the drug sensitivity score (Bowes) was 0.
